Results taken from the NIST ThermoML archive (doi:10.1016/j.fluid.2017.07.006).

Settings: Liquid

CC(O)CO (centres undefined) [1,2-propanediol]
Settings | mass density [kg/m3] | viscosity [mPa·s]
292.1 K, 101.33 kPa, Capillary tube (Ostwald / Ubbelohde) method | – | 60.61
293.1 K, 101.33 kPa, Capillary tube (Ostwald / Ubbelohde) method | – | 58.09
293.15 K, 101.33 kPa, Pycnometric method | 1035.5 | –
298.15 K, 98 kPa, Buoyancy - hydrostatic balance | 1032.56 | –
298.15 K, 98 kPa, Falling or rolling sphere viscometry | – | 43.69
298.15 K, 101.33 kPa, Capillary tube (Ostwald / Ubbelohde) method | – | 43.69
298.15 K, 101.33 kPa, Pycnometric method | 1032.56 | –
298.15 K, 49030 kPa, Buoyancy - hydrostatic balance | 1055.29 | –
298.15 K, 49030 kPa, Falling or rolling sphere viscometry | – | 64.02
298.15 K, 98060 kPa, Buoyancy - hydrostatic balance | 1072.94 | –
298.15 K, 98060 kPa, Falling or rolling sphere viscometry | – | 94.28
298.15 K, 147100 kPa, Buoyancy - hydrostatic balance | 1088.48 | –
298.15 K, 147100 kPa, Falling or rolling sphere viscometry | – | 134.1
298.15 K, 196130 kPa, Buoyancy - hydrostatic balance | 1104.32 | –
298.15 K, 196130 kPa, Falling or rolling sphere viscometry | – | 187.2
298.15 K, 245160 kPa, Buoyancy - hydrostatic balance | 1115.28 | –
298.15 K, 245160 kPa, Falling or rolling sphere viscometry | – | 260.7
303.15 K, 98 kPa, Buoyancy - hydrostatic balance | 1028.87 | –
303.15 K, 98 kPa, Falling or rolling sphere viscometry | – | 32.35
303.15 K, 49030 kPa, Buoyancy - hydrostatic balance | 1052.03 | –
303.15 K, 49030 kPa, Falling or rolling sphere viscometry | – | 48.25
303.15 K, 98060 kPa, Buoyancy - hydrostatic balance | 1070.79 | –
303.15 K, 98060 kPa, Falling or rolling sphere viscometry | – | 69.46
303.15 K, 147100 kPa, Buoyancy - hydrostatic balance | 1086.25 | –
303.15 K, 147100 kPa, Falling or rolling sphere viscometry | – | 97.33
303.15 K, 196130 kPa, Buoyancy - hydrostatic balance | 1101.4 | –
303.15 K, 196130 kPa, Falling or rolling sphere viscometry | – | 134.7
303.15 K, 245160 kPa, Buoyancy - hydrostatic balance | 1112.65 | –
303.15 K, 245160 kPa, Falling or rolling sphere viscometry | – | 183.3
303.4 K, 101.33 kPa, Capillary tube (Ostwald / Ubbelohde) method | – | 31.54
312.98 K, 98 kPa, Buoyancy - hydrostatic balance | 1022.16 | –
312.98 K, 98 kPa, Falling or rolling sphere viscometry | – | 19.45
313 K, 49030 kPa, Buoyancy - hydrostatic balance | 1046.22 | –
313 K, 49030 kPa, Falling or rolling sphere viscometry | – | 28.34
313.03 K, 147100 kPa, Buoyancy - hydrostatic balance | 1081.67 | –
313.03 K, 147100 kPa, Falling or rolling sphere viscometry | – | 54.68
313.03 K, 245160 kPa, Buoyancy - hydrostatic balance | 1107.51 | –
313.03 K, 245160 kPa, Falling or rolling sphere viscometry | – | 98.04
313.04 K, 196130 kPa, Buoyancy - hydrostatic balance | 1095.69 | –
313.04 K, 196130 kPa, Falling or rolling sphere viscometry | – | 73.88
313.05 K, 98060 kPa, Buoyancy - hydrostatic balance | 1065.24 | –
313.05 K, 98060 kPa, Falling or rolling sphere viscometry | – | 39.87
313.15 K, 101.33 kPa, Pycnometric method | 1021.9 | –
313.9 K, 101.33 kPa, Capillary tube (Ostwald / Ubbelohde) method | – | 19.37
316 K, 101.33 kPa, Capillary tube (Ostwald / Ubbelohde) method | – | 17.04
332.1 K, 101.33 kPa, Capillary tube (Ostwald / Ubbelohde) method | – | 8.76
333.15 K, 101.33 kPa, Pycnometric method | 1006.3 | –
335.76 K, 98060 kPa, Buoyancy - hydrostatic balance | 1050.34 | –
335.76 K, 98060 kPa, Falling or rolling sphere viscometry | – | 14.23
335.78 K, 98 kPa, Buoyancy - hydrostatic balance | 1005.31 | –
335.78 K, 98 kPa, Falling or rolling sphere viscometry | – | 7.524
335.78 K, 147100 kPa, Buoyancy - hydrostatic balance | 1068.19 | –
335.78 K, 147100 kPa, Falling or rolling sphere viscometry | – | 18.86
335.8 K, 49030 kPa, Buoyancy - hydrostatic balance | 1029.3 | –
335.8 K, 49030 kPa, Falling or rolling sphere viscometry | – | 10.59
335.8 K, 196130 kPa, Buoyancy - hydrostatic balance | 1082.92 | –
335.8 K, 196130 kPa, Falling or rolling sphere viscometry | – | 24.61
336.01 K, 245160 kPa, Buoyancy - hydrostatic balance | 1095.8 | –
336.01 K, 245160 kPa, Falling or rolling sphere viscometry | – | 30.53
353.15 K, 101.33 kPa, Pycnometric method | 990.28 | –
353.4 K, 101.33 kPa, Capillary tube (Ostwald / Ubbelohde) method | – | 4.29
353.6 K, 101.33 kPa, Capillary tube (Ostwald / Ubbelohde) method | – | 4.18
364.39 K, 98 kPa, Buoyancy - hydrostatic balance | 981.63 | –
364.39 K, 98 kPa, Falling or rolling sphere viscometry | – | 3.034
364.66 K, 49030 kPa, Buoyancy - hydrostatic balance | 1007.36 | –
364.66 K, 49030 kPa, Falling or rolling sphere viscometry | – | 4.074
364.83 K, 98060 kPa, Buoyancy - hydrostatic balance | 1031.15 | –
364.83 K, 98060 kPa, Falling or rolling sphere viscometry | – | 5.292
364.87 K, 147100 kPa, Buoyancy - hydrostatic balance | 1051.61 | –
364.87 K, 147100 kPa, Falling or rolling sphere viscometry | – | 6.718
364.99 K, 245160 kPa, Buoyancy - hydrostatic balance | 1081.56 | –
364.99 K, 245160 kPa, Falling or rolling sphere viscometry | – | 10.31
365 K, 196130 kPa, Buoyancy - hydrostatic balance | 1067.32 | –
365 K, 196130 kPa, Falling or rolling sphere viscometry | – | 8.372
365.15 K, 101.33 kPa, Pycnometric method | 978.97 | –
368.15 K, 101.33 kPa, Pycnometric method | 977.28 | –
388.6 K, 101.33 kPa, Capillary tube (Ostwald / Ubbelohde) method | – | 1.767
389.3 K, 101.33 kPa, Capillary tube (Ostwald / Ubbelohde) method | – | 1.7
394.95 K, 98 kPa, Buoyancy - hydrostatic balance | 953.22 | –
394.95 K, 98 kPa, Falling or rolling sphere viscometry | – | 1.504
395.11 K, 49030 kPa, Buoyancy - hydrostatic balance | 982.98 | –
395.11 K, 49030 kPa, Falling or rolling sphere viscometry | – | 1.954
395.17 K, 98060 kPa, Buoyancy - hydrostatic balance | 1010.62 | –
395.17 K, 98060 kPa, Falling or rolling sphere viscometry | – | 2.451
395.38 K, 147100 kPa, Buoyancy - hydrostatic balance | 1033.92 | –
395.38 K, 147100 kPa, Falling or rolling sphere viscometry | – | 3.011
395.57 K, 196130 kPa, Buoyancy - hydrostatic balance | 1051.9 | –
395.57 K, 196130 kPa, Falling or rolling sphere viscometry | – | 3.659
395.68 K, 245160 kPa, Buoyancy - hydrostatic balance | 1067.12 | –
395.68 K, 245160 kPa, Falling or rolling sphere viscometry | – | 4.374
399.15 K, 101.33 kPa, Pycnometric method | 949.76 | –
423.3 K, 101.33 kPa, Capillary tube (Ostwald / Ubbelohde) method | – | 0.926
423.51 K, 98 kPa, Buoyancy - hydrostatic balance | 926.76 | –
423.51 K, 98 kPa, Falling or rolling sphere viscometry | – | 0.925
423.62 K, 49030 kPa, Buoyancy - hydrostatic balance | 959.18 | –
423.62 K, 49030 kPa, Falling or rolling sphere viscometry | – | 1.239
423.65 K, 101.33 kPa, Pycnometric method | 925.92 | –
423.9 K, 98060 kPa, Buoyancy - hydrostatic balance | 989.94 | –
423.9 K, 98060 kPa, Falling or rolling sphere viscometry | – | 1.533
423.97 K, 147100 kPa, Buoyancy - hydrostatic balance | 1016.34 | –
423.97 K, 147100 kPa, Falling or rolling sphere viscometry | – | 1.89
424.05 K, 196130 kPa, Buoyancy - hydrostatic balance | 1038.38 | –
424.05 K, 196130 kPa, Falling or rolling sphere viscometry | – | 2.244
424.3 K, 245160 kPa, Buoyancy - hydrostatic balance | 1054.25 | –
424.3 K, 245160 kPa, Falling or rolling sphere viscometry | – | 2.608
450.15 K, 101.33 kPa, Pycnometric method | 896.89 | –
452.07 K, 245160 kPa, Buoyancy - hydrostatic balance | 1042.31 | –
452.07 K, 245160 kPa, Falling or rolling sphere viscometry | – | 1.656
452.1 K, 49030 kPa, Buoyancy - hydrostatic balance | 934.51 | –
452.1 K, 49030 kPa, Falling or rolling sphere viscometry | – | 0.81
452.14 K, 98060 kPa, Buoyancy - hydrostatic balance | 965.53 | –
452.14 K, 98060 kPa, Falling or rolling sphere viscometry | – | 0.995
452.17 K, 98 kPa, Buoyancy - hydrostatic balance | 900.36 | –
452.17 K, 98 kPa, Falling or rolling sphere viscometry | – | 0.604
452.18 K, 196130 kPa, Buoyancy - hydrostatic balance | 1022.83 | –
452.18 K, 196130 kPa, Falling or rolling sphere viscometry | – | 1.425
452.19 K, 147100 kPa, Buoyancy - hydrostatic balance | 996.01 | –
452.19 K, 147100 kPa, Falling or rolling sphere viscometry | – | 1.212
458.9 K, 101.33 kPa, Capillary tube (Ostwald / Ubbelohde) method | – | 0.533
